# Earlier results in patent US7074826B2, “R-NSAID esters and their use” (Encore Pharmaceuticals, Inc., priority 2002, dated 2006).
# Legend:
# Alzheimer's dementia = settings: limited clinical trial
smiles,measurement,setting,value
"CC(C)Cc1ccc(C(C)C(=O)O)cc1 (racemic) [racemic ibuprofen, ibuprofen]",adverse effects of high doses,cystic fibrosis patients; high doses employed in the Konstan study,conjunctivitis and epistaxis
same,progression of the lung disease,"cystic fibrosis patients; high doses, cystic fibrosis patients, four-year period",slows progression of the lung disease
COc1ccc2c(c1)c(CC(=O)O)c(C)n2C(=O)c1ccc(Cl)cc1 [indomethacin],progression of Alzheimer's dementia,Alzheimer's dementia,retardation in the progression of Alzheimer's dementia
O=c1[nH]cc(F)c(=O)[nH]1 [5-fluorouracil],survival among colon cancer patients,colon cancer patients; administered alone,No improvement in survival
c1ccc([C@H]2CN3CCSC3=N2)cc1 [levamisole],survival rate among colon cancer patients,colon cancer patients; added to 5-fluorouracil,improved survival rate
